From US12077503B2, “Substituted cyclic amides and their use as herbicides” (FMC CORPORATION, priority 2015, dated 2024)

Columns and labels:
Format in all cases: in vivo
Kochia (Kochia scoparia) [1] = assay: Test A preemergence; conditions: Bassia scoparia, pre-emergence, 240 h, 0 to 100 scale where 0 is no effect and 100 is complete control, read-out: Kochia plant response rating
Summary of the method: (§1)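 In a loam soil and sand blend, planted seeds got a preemergence directed soil spray, and young plants at the one- to two-leaf stage, 2–10 cm high, got a postemergence application; ~10 d greenhouse hold; injury rated visually, 0 = none, 100 = complete control.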

[2] = tested on: barnyardgrass (Echinochloa crus-galli); assay: Test A preemergence; conditions: Echinochloa crus-galli, pre-emergence, 240 h, 0 to 100 scale where 0 is no effect and 100 is complete control, read-out: Barnyardgrass plant response rating
Summary of the method: as §1

[3] = tested on: giant foxtail (Setaria faberii); assay: Test A preemergence; conditions: Setaria faberi, pre-emergence, 240 h, 0 to 100 scale where 0 is no effect and 100 is complete control, read-out: Foxtail, Giant plant response rating
Summary of the method: as §1

[4] = tested on: pigweed (Amaranthus retroflexus); assay: Test A preemergence; conditions: Amaranthus retroflexus, pre-emergence, 240 h, 0 to 100 scale where 0 is no effect and 100 is complete control, read-out: Pigweed plant response rating
[5] = tested on: ragweed (common ragweed, Ambrosia elatior); assay: Test A preemergence; conditions: Ambrosia artemisiifolia, pre-emergence, 240 h, 0 to 100 scale where 0 is no effect and 100 is complete control, read-out: Ragweed plant response rating
Summary of the method: as §1

[6] = tested on: ryegrass, Italian (Italian ryegrass, Lolium multiflorum); assay: Test A preemergence; conditions: Lolium multiflorum, pre-emergence, 240 h, 0 to 100 scale where 0 is no effect and 100 is complete control, read-out: Ryegrass, Italian plant response rating
Summary of the method: as §1

[7] = tested on: Galium (catchweed bedstraw, Galium aparine); assay: Test A postemergence; conditions: Galium, post-emergence, 240 h
Summary of the method: as §1

Kochia (Kochia scoparia) [8] = assay: Test A postemergence; conditions: Bassia scoparia, post-emergence, 240 h
Summary of the method: as §1

[9] = tested on: barnyardgrass (Echinochloa crus-galli); assay: Test A postemergence; conditions: Echinochloa crus-galli, post-emergence, 240 h
Summary of the method: as §1

[10] = tested on: blackgrass (Alopecurus myosuroides); assay: Test A postemergence; conditions: Alopecurus myosuroides, post-emergence, 240 h
Summary of the method: as §1

corn (Zea mays) = assay: Test A postemergence; conditions: Zea mays, post-emergence, 240 h
Summary of the method: as §1

[11] = tested on: giant foxtail (Setaria faberii); assay: Test A postemergence; conditions: Setaria faberi, post-emergence, 240 h
Summary of the method: as §1

[12] = tested on: pigweed (Amaranthus retroflexus); assay: Test A postemergence; conditions: Amaranthus retroflexus, post-emergence, 240 h
Summary of the method: as §1

[13] = tested on: ragweed (common ragweed, Ambrosia elatior); assay: Test A postemergence; conditions: Ambrosia artemisiifolia, post-emergence, 240 h
Summary of the method: as §1

[14] = tested on: ryegrass, Italian (Italian ryegrass, Lolium multiflorum); assay: Test A postemergence; conditions: Lolium multiflorum, post-emergence, 240 h
Summary of the method: as §1

[15] = tested on: wheat (Triticum aestivum); assay: Test A postemergence; conditions: Triticum aestivum, post-emergence, 240 h
Summary of the method: as §1

[16] = tested on: barnyardgrass (Echinochloa crus-galli); assay: Test B flooded paddy test; conditions: Echinochloa crus-galli, 250 g ai/ha, Flood; 0 to 100 scale where 0 is no effect and 100 is complete control; read-out: Barnyardgrass plant response rating
Summary of the method: (§2)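 Flooding to 3 cm over soil accompanied treatment, which consisted of adding compound to the standing water around 2-leaf plants; depth was then maintained. Visual assessment versus controls followed at 13 to 15 d (scale 0–100, 0 meaning no effect).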

[17] = tested on: ducksalad (Heteranthera limosa); assay: Test B flooded paddy test; conditions: Heteranthera limosa, 250 g ai/ha, Flood; 0 to 100 scale where 0 is no effect and 100 is complete control; read-out: Ducksalad plant response rating
Summary of the method: as §2

rice (Oryra sativa) = assay: Test B flooded paddy test; conditions: Oryza sativa, 250 g ai/ha, Flood; 0 to 100 scale where 0 is no effect and 100 is complete control; read-out: Rice plant response rating
Summary of the method: as §2

[18] = tested on: sedge, umbrella (small-flower umbrella sedge, Cyperus difformis); assay: Test B flooded paddy test; conditions: Cyperus difformis, 250 g ai/ha, Flood; 0 to 100 scale where 0 is no effect and 100 is complete control; read-out: Sedge, Umbrella plant response rating
Summary of the method: as §2

[19] = 125 g ai/ha, preemergence, approx. 10 d

`C=C(C)c1ccc([C@H]2CN(C)C(=O)[C@@H]2C(=O)Nc2ccc(F)c(F)c2F)cc1` [Compound 1148] gave a pest or weed control at 31 g/ha (Kochia (Kochia scoparia) [1]; 31 g ai/ha, Preemergence) of 0%, a pest or weed control at 125 g/ha (Kochia (Kochia scoparia) [1]; [19]) of 0% and a pest or weed control at 31 g/ha ([2]; 31 g ai/ha, Preemergence) of 30%. The pest or weed control at 125 g/ha [2, 19] was 90%, the pest or weed control at 31 g/ha ([3]; 31 g ai/ha, Preemergence) was 90% and the pest or weed control at 125 g/ha [3, 19] was 90%. For the same compound, the pest or weed control at 31 g/ha ([4]; 31 g ai/ha, Preemergence) was 0%, the pest or weed control at 125 g/ha [4, 19] was 0% and the pest or weed control at 31 g/ha ([5]; 31 g ai/ha, Preemergence) was 0%. It also gave a pest or weed control at 125 g/ha [5, 19] of 0%, a pest or weed control at 31 g/ha ([6]; 31 g ai/ha, Preemergence) of 0% and a pest or weed control at 125 g/ha [6, 19] of 20%. For the same compound, the pest or weed control at 125 g/ha ([7]; 125 g ai/ha, postemergence, visual injury on 0 to 100 scale (0 no effect, 100 complete control), approx. 10 d, read-out: Galium plant response rating) was 40%, the pest or weed control at 31 g/ha ([7]; Postemergence, 31 g ai/ha, visual injury after approx. 10 d, 0 to 100 scale, 0 no effect, 100 complete control, read-out: Plant response rating, Galium) was 0% and the pest or weed control at 125 g/ha (Kochia (Kochia scoparia) [8]; 125 g ai/ha, postemergence, visual injury on 0 to 100 scale (0 no effect, 100 complete control), approx. 10 d, read-out: Kochia plant response rating) was 0%. The pest or weed control at 31 g/ha (Kochia (Kochia scoparia) [8]; Postemergence, 31 g ai/ha, visual injury after approx. 10 d, 0 to 100 scale, 0 no effect, 100 complete control, read-out: Plant response rating, Kochia) was 0%, the pest or weed control at 125 g/ha ([9]; 125 g ai/ha, postemergence, visual injury on 0 to 100 scale (0 no effect, 100 complete control), approx. 10 d, read-out: Barnyardgrass plant response rating) was 80% and the pest or weed control at 31 g/ha ([9]; Postemergence, 31 g ai/ha, visual injury after approx. 10 d, 0 to 100 scale, 0 no effect, 100 complete control, read-out: Plant response rating, Barnyardgrass) was 50%. It also gave a pest or weed control at 125 g/ha ([10]; 125 g ai/ha, postemergence, visual injury on 0 to 100 scale (0 no effect, 100 complete control), approx. 10 d, read-out: Blackgrass plant response rating) of 20%, a pest or weed control at 31 g/ha ([10]; Postemergence, 31 g ai/ha, visual injury after approx. 10 d, 0 to 100 scale, 0 no effect, 100 complete control, read-out: Plant response rating, Blackgrass) of 0% and a plant injury at 125 g/ha (corn (Zea mays); 125 g ai/ha, postemergence, visual injury on 0 to 100 scale (0 no effect, 100 complete control), approx. 10 d, read-out: Corn plant response rating) of 0%. The Corn plant response rating (crop injury, 0 = no effect, 100 = complete kill) at 31 g/ha (corn (Zea mays); Postemergence, 31 g ai/ha, visual injury after approx. 10 d, 0 to 100 scale, 0 no effect, 100 complete control) was 0%, the pest or weed control at 125 g/ha ([11]; 125 g ai/ha, postemergence, visual injury on 0 to 100 scale (0 no effect, 100 complete control), approx. 10 d, read-out: Foxtail, Giant plant response rating) was 80% and the pest or weed control at 31 g/ha ([11]; Postemergence, 31 g ai/ha, visual injury after approx. 10 d, 0 to 100 scale, 0 no effect, 100 complete control, read-out: Plant response rating, Foxtail, Giant) was 50%. For the same compound, the pest or weed control at 125 g/ha ([12]; 125 g ai/ha, postemergence, visual injury vs untreated controls after approx. 10 d, 0 = no effect, 100 = complete control, read-out: Pigweed plant response rating (0 to 100 scale)) was 20%, the pest or weed control at 31 g/ha ([12]; Postemergence, 31 g ai/ha, visual injury after approx. 10 d, 0 to 100 scale, 0 no effect, 100 complete control, read-out: Plant response rating, Pigweed) was 0% and the pest or weed control at 125 g/ha ([13]; 125 g ai/ha, postemergence, visual injury vs untreated controls after approx. 10 d, 0 = no effect, 100 = complete control, read-out: Ragweed plant response rating (0 to 100 scale)) was 0%. It also gave a pest or weed control at 31 g/ha ([13]; Postemergence, 31 g ai/ha, visual injury after approx. 10 d, 0 to 100 scale, 0 no effect, 100 complete control, read-out: Plant response rating, Ragweed) of 0%, a pest or weed control at 125 g/ha ([14]; 125 g ai/ha, postemergence, visual injury vs untreated controls after approx. 10 d, 0 = no effect, 100 = complete control, read-out: Ryegrass, Italian plant response rating (0 to 100 scale)) of 0% and a pest or weed control at 31 g/ha ([14]; Postemergence, 31 g ai/ha, visual injury after approx. 10 d, 0 to 100 scale, 0 no effect, 100 complete control, read-out: Plant response rating, Ryegrass, Italian) of 0%. For the same compound, the plant injury at 125 g/ha ([15]; 125 g ai/ha, postemergence, visual injury vs untreated controls after approx. 10 d, 0 = no effect, 100 = complete control, read-out: Wheat plant response rating (0 to 100 scale)) was 0%, the plant injury at 31 g/ha ([15]; Postemergence, 31 g ai/ha, visual injury after approx. 10 d, 0 to 100 scale, 0 no effect, 100 complete control, read-out: Plant response rating, Wheat) was 0% and the pest or weed control at 250 g/ha [16] was 50%. It also gave a pest or weed control at 250 g/ha [17] of 70%, a pest or weed control at 250 g/ha (rice (Oryra sativa)) of 60% and a pest or weed control at 250 g/ha [18] of 0%.
